Experimental data published in patent US8435978B2, “Substituted sulfonamide compounds” (Gruenenthal GmbH, priority 2006, dated 2013).

How the values were obtained:
[1] = system: formalin-induced pain behavior; experiment: Formalin test in the mouse (phase 2, chronic pain component); format: in vivo; conditions: iv, 5 min. before formalin injection, observation 21 to 24 minutes after formalin
Method: The formalin test (Dubuisson, D. and Dennis, S. G., 1977, Pain, 4, 161-174) represents a model for both acute and chronic pain. By means of a single formalin injection into the dorsal side of a rear paw, a biphasic nociceptive reaction is induced in freely mobile test animals; the reaction is detected by observing three behaviour patterns which are clearly distinguishable from one another. The reaction is two-phase: phase 1=immediate reaction (duration up to 10 min., shaking of the paw, licking), phase 2=late reaction (after a rest phase; likewise shaking of the paw, licking; duration up to 60 min.). The 1st phase reflects a direct stimulation of the peripheral nocisensors with high spinal nociceptive input (acute pain phase); the 2nd phase reflects a spinal and peripheral hypersensitization (chronic pain phase). In the studies described here, the chronic pain component (phase 2) has been evaluated. Formalin in a volume of 20 μl and a concentration of 1% is administered subcutaneously into the dorsal side of the right rear paw of each animal. The specific changes in behavior, such as lifting, shaking or licking of the paw (score 3, Dubuisson & Dennis, 1977), are observed and recorded in the observation period of 21 to 24 minutes following the formalin injection. The behaviour of the animals after administration of the substance (n=10 per dose of substance) was compared with a control group which received vehicle (n=10). Based on the quantification of the pain behavior, the action of the substance in the formalin test was determined as the change in percent compared with the control. The ED50 calculations (ED50=mean effective dose) were carried out by regression analysis according to the method of Litchfield and Wilcoxon (Litchfield, J. T., Wilcoxon, J. J., 1949, J. Pharmacol. Exp. Ther. 96, 99-113). The time of administration before the formalin injection was chosen in dependence on the mode of administration of the compounds according to the invention (intravenous: 5 min.).

[2] = system: Bradykinin Receptor 1 (B1R)-mediated formation of IL-6 in IMR-90 fibroblasts; experiment: Inhibition of the B1R-mediated formation of IL-6 in IMR-90 fibroblasts (IL-6 ELISA); format: cell-based, human; conditions: antagonist 10 μM
Source text: The pro-inflammatory cytokines TNFα (or IL-1) lead in various cell types, such as, for example, fibroblasts, to an activation, which brings about inter alia enhanced expression of B1R. Subsequent stimulation of these cells with a B1R agonist results in the formation of further pro-inflammatory cytokines, such as, for example, IL-6. The chronification of inflammations is thereby promoted. Treatment with a B1R antagonist should lead to inhibition of the B1R agonist-induced IL-6 formation. By way of example, a B1R antagonist identified in the FLIPR assay was tested in this respect.
The human fibroblast cell line IMR-90 (ATCC, CCL-186) was passaged in culture medium (Ham's F12 nutrient mixture, Gibco Invitrogen GmbH, Karlsruhe Germany with 10% FBS, fetal bovine serum, Gibco, Invitrogen GmbH, Karlsruhe Germany; 0.1 mM non-essential amino acids, Gibco, 11140-035, 1 mM sodium pyruvate, Euro Clone, ECM0542D; 1.5 g/l sodium bicarbonate, Euro Clone, ECM0980D) on 80 cm^2 bottles (Nunc; 178905) (ratio:1:2 to 1:6; medium replaced every 3-4 days) and plated out for experiments on 96-well plates (Greiner bio-one; No. 655180) with 1×10^5 cells per well. The cells are incubated overnight at 37° C. and 5% CO2.
For activation with TNFα (human, recombinant, expressed in E. coli, SIGMA-ALDRICH T6674, 10 ng/ml) alone or TNFα combined with the human B1R agonist Lys-Des-Arg^9-bradykinin (Lys-Des-Arg^9-BK), the IMR-90 fibroblasts were incubated overnight at 37° C. and 5% CO2 in culture medium. The final concentrations of Lys-Des-Arg^9-BK were 1000 nM or 10 nM. Some IMR-90 stimulation batches additionally contained the B1R antagonist of Example 8 in a final concentration of 10 μM. 24 hours after activation, in each case 150 μl of culture medium were removed from all the different stimulation batches and were transferred to a new plate and frozen. After thawing of the supernatants, the IL-6 content was determined by means of a commercially available IL-6 Elisa.
ELISA Assay (Procedure, Modified According the Manufacturer's Specifications):
Elisa kit: from: BIOSOURCE; CytoSets™, Art. No.: CHC 1264
The above-described processes were carried out with Example compound 8.

[3] = TNFα 10 ng/ml, 24 hours after activation

inhibition of the activation of IL-6 formation ([2]; TNFα + relatively high dose of Lys-Des-Arg^9-BK (1000 nM)): still partially inhibited
inhibition of the activation of IL-6 formation ([2]; TNFα + relatively low dose of Lys-Des-Arg^9-BK (10 nM)): eliminated almost completely
Structure (SMILES): COc1cc(C)c(S(=O)(=O)N2CCCCC2COCC(=O)N2CCN(C3CCN(C)CC3)CC2)c(C)c1 (stereo not drawn) [Example 8, 2-[1-(4-methoxy-2,6-dimethyl-phenylsulfonyl)-piperidin-2-ylmethoxy]-1-[4-(1-methyl-piperidin-4-yl)-piperazin-1-yl]-ethanone]
ED50 [1]: 12.8 mg/kg
Production of IL-6 (pg/ml) by IMR-90 fibroblasts, TNFα + Lys-Des-Arg^9-BK (10 nM) [2, 3]: 119 pg/mL
Production of IL-6 (pg/ml) by IMR-90 fibroblasts, TNFα + Lys-Des-Arg^9-BK (1000 nM) [2, 3]: 483 pg/mL
Production of IL-6 (pg/ml) by IMR-90 fibroblasts, TNFα alone [2, 3]: 136 pg/mL
